Each structure is given as a SMILES string.

The test system of this experiment is Hh-signalling cascade. The experiment in a line: Inhibition of SHh-induced alkaline phosphatase in C3H10T1/2 cells (Hh-signalling cascade inhibition). Format: cell-based. The conditions noted are these: Mus musculus, C3H 10T1/2, half maximal inhibition of SHh (0.3 μg/ml) stimulation of cell alkaline phosphatase. The text has this: C3H10T1/2 Cells were used for identification of inhibitors of SHh-protein signaling cascade. SHh-protein activates C3H10T1/2 cells, that leads to their osteogenic differentiation [1) Kinto N., Iwamoto M., Enomoto-Iwamoto M., Noji S., Ohuchi H., Yoshioka H., Kataoka H., Wada Y., Yuhao G., Takahashi H. E., Yoshiki S., Yamaguchi A. Fibroblasts expressing Sonic hedgehog induce osteoblast differentiation and ectopic bone formation. FEBS Lett. 1997; 404(2-3): 319-23. 2) Spinella-Jaegle S., Rawadi G., Kawai S., Gallea S., Faucheu C., Mollat P., Courtois B., Bergaud B., Ramez V., Blanchet A. M., Adelmant G., Baron R., Roman-Roman S. Sonic hedgehog increases the commitment of pluripotent mesenchymal cells into the osteoblastic lineage and abolishes adipocytic differentiation. J. Cell Sci. 2001; 114(Pt 11): 2085-94] and, in particular, to expression enhancement of alkaline phosphatase enzyme.
The cells were cultivated in DMEM medium with 10% embryonal calfish serum in incubator at 37° C., 100% humidity and 5% CO2 content. The cells were placed in 384-well plates and left for night. On the next day the tested compounds in concentration of 10 μM were added to the cells, incubated for 30 min, then recombinant (R & D Systems, USA) SHh protein in concentration of 0.3 μg/ml was added and incubation was continued for 3 days. Cells with DMSO instead of a test compound and cells without SHh protein were used as test control. For determination of the cell alkaline phosphatase activity the cells were lysed in the buffer containing 0.2% Triton-X100, lisates were incubated together with proluminescent substrate CSPD (Applied Biosystems, USA) and the resultant luminescence was measured using reader VICTOR^2V (PerkinElmer, USA).
The ability of the compounds to inhibit Hh-signalling cascade was determined using C3H10T1/2 cells in 384-well plates as described in example 1. The compounds were added in triplicates in various concentrations, prepared by multiple dilution of starting solutions (concentration dependences of cell alkaline phosphatase inhibition induced by the addition of tested compounds are shown in FIG. 1). Activity of the compounds was characterized by their concentrations produced half maximal inhibition of stimulation of cell alkaline phosphatase SHh (IC50).
A word on the IC50: it is the point on the concentration scale where inhibition reaches its midpoint. `Cc1nn(C(C)C(=O)N2CCN(c3ccccc3F)CC2)c(=O)c2nn(-c3ccccc3)c(C)c12` (stereo not drawn) [I-1013, 2-Phenyl-3,4-dimethyl-6-{1-methyl-2-[4-(2-fluorophenyl)piperazin-1-yl]-2-oxoethyl}-2,6-dihydro-7H-pyrazolo[3,4-d]pyridazin-7-one]: the IC50 was below 0.5 µM. `Cc1ccc(-n2nc3c(=O)n(CC(=O)Nc4ccccc4F)nc(C)c3c2C)c(C)c1` [I-1014, 2-[2-(2,4-dimethylphenyl)-3,4-dimethyl-7-oxo-2,7-dihydro-6H-pyrazolo[3,4-c]pyridazin-6-yl]-N-(2-fluorophenyl)acetamide] displayed an IC50 below 5 µM.

As for `CCC(C(=O)N1CCOCC1)n1nc(C)c2c(C)n(-c3ccccc3)nc2c1=O` (stereo not drawn) [I-1015, 2-Phenyl-3,4-dimethyl-6-[1-(morpholin-4-ylcarbonyl)propyl]-2,6-dihydro-7H-pyrazolo[3,4-c]pyridazin-7-one], the IC50 was below 5 µM. For `Cc1ccc(-n2nc3c(=O)n(CC(=O)NCc4ccc(C)o4)nc(C)c3c2C)cc1` [I-1016, 2-[2-(4-Methylphenyl)-3,4-dimethyl-7-oxo-2,7-dihydro-6H-pyrazolo[3,4-d]pyridazin-6-yl]-N-[(5-methylfuran-2-yl)methyl]acetamide] the value was below 5 µM; for `Cc1ccc(-n2nc3c(=O)n(C(C)C(=O)NCCc4cccs4)nc(C)c3c2C)cc1` (stereo not drawn) [I-1017, 2-[2-(4-Methylphenyl)-3,4-dimethyl-7-oxo-2,7-dihydro-6H-pyrazolo[3,4-d]pyridazin-6-yl)-N-[2-(thien-2-yl)ethyl]propanamide], below 5 µM. For `CCC(C(=O)NC1CC1)n1nc(C)c2c(C)n(-c3ccc(C)cc3)nc2c1=O` (stereo not drawn) [I-1018, 2-[2-(4-Methylphenyl)-3,4-dimethyl-7-oxo-2,7-dihydro-6H-pyrazolo[3,4-c]pyridazin-6-yl]-N-(cyclopropyl)butanamide] the value was below 5 µM; for `Cc1nn(CCC(=O)NCc2cccnc2)c(=O)c2nn(-c3ccccc3)c(C)c12` [I-1019, 3-(2-Phenyl-3,4-dimethyl-7-oxo-2,7-dihydro-6H-pyrazolo[3,4-c]pyridazin-6-yl)-N-(pyridin-3-ylmethyl)propanamide], below 5 µM.

In the case of `Cc1nn(CCC(=O)NCc2ccco2)c(=O)c2nn(-c3ccccc3)c(C)c12` [I-1020, 3-(2-Phenyl-3,4-dimethyl-7-oxo-2,7-dihydro-6H-pyrazolo[3,4-c]pyridazin-6-yl)-N-(furan-2-ylmethyl)propanamide], the IC50 was below 5 µM. In turn, `Cc1nn(CCC(=O)N2CCOCC2)c(=O)c2nn(-c3ccccc3)c(C)c12` [I-1021, 2-Phenyl-3,4-dimethyl-6-(3-(morpholin-4-yl)-3-oxopropyl)-2,6-dihydro-7H-pyrazolo[3,4-c]pyridazin-7-one] had an IC50 below 5 µM. For `Cc1nn(CCC(=O)NCc2cccs2)c(=O)c2nn(-c3ccccc3)c(C)c12` [I-1022, 3-(2-Phenyl-3,4-dimethyl-7-oxo-2,7-dihydro-6H-pyrazolo[3,4-c]pyridazin-6-yl)-N-(thien-2-ylmethyl)propanamide] the value was below 5 µM; for `Cc1ccc(-n2nc3c(=O)n(CCCC(=O)NCCc4ccco4)nc(C)c3c2C)cc1` [I-1023, 4-[2-(4-Methylphenyl)-3,4-dimethyl-oxo-2,7-dihydro-6H-pyrazolo[3,4-d]pyridazin-6-yl]-N-[2-(furan-2-yl)ethyl]butanamide], below 50 µM; for `CCN1CCN(C(=O)CCCn2nc(C)c3c(C)n(-c4ccc(C)cc4)nc3c2=O)CC1` [I-1024, 2-(4-Methylphenyl)-3,4-dimethyl-6-[4-(4-ethylpiperazin-1-yl)-4-oxobutyl]-2,6-dihydro-7H-pyrazolo[3,4-c]pyridazin-7-one], below 50 µM. In the case of `Cc1nn(CCCC(=O)N2CCOCC2)c(=O)c2nn(-c3ccccc3)c(C)c12` [I-1025, 2-Phenyl-3,4-dimethyl-6-[4-(morpholin-4-yl)-4-oxobutyl]-2,6-dihydro-2H-pyrazolo[3,4-c]pyridazin-7-one], the IC50 was below 50 µM. In the case of `Cc1nn(CCCC(=O)Nc2ccc(C(C)C)cc2)c(=O)c2nn(-c3ccccc3)c(C)c12` [I-1026, 4-(2-Phenyl-3,4-dimethyl-7-oxo-2,7-dihydro-6H-pyrazolo[3,4-d]pyridazin-6-yl)-N-[(1-methylethyl)phenyl]butanamide] it was below 50 µM. For `Cc1cccc(N2CCN(C(=O)CN3C(=O)CSc4c3c(C)nn4-c3ccccc3)CC2C)c1` (stereo not drawn) [II-1001, 3-Methyl-4-[2-(3-methyl-4-m-tolylpiperazin-1-yl)-2-oxoethyl]-1-phenyl-1,4-dihydro-pyrazolo[3,4-b][1,4]thiazin-5-one] the value was below 0.5 µM. `Cc1nn(-c2ccccc2)c2c1N(CC(=O)Nc1cccc(C(F)(F)F)c1)C(=O)CS2` [II-1002, 2-(3-Methyl-5-oxo-1-phenyl-5,6-dihydro-1H-pyrazolo[3,4-b][1,4]thiazin-4-yl)-N-(3-trifluoromethylphenyl)acetamide] registered an IC50 below 0.5 µM. For `Cc1nn(-c2ccccc2)c2c1N(CC(=O)NCc1ccccn1)C(=O)CS2` [II-1003, 2-(3-Methyl-5-oxo-1-phenyl-5,6-dihydro-1H-pyrazolo[3,4-b][1,4]thiazin-4-yl)-N-(pyridin-2-ylmethyl)acetamide] the value was below 5 µM; for `COc1ccc(CCNC(=O)CN2C(=O)CSc3c2c(C)nn3-c2ccccc2)cc1OC` [II-1005, N-[2-(3,4-Dimethoxyphenyl)ethyl]-2-(3-methyl-5-oxo-1-phenyl-5,6-dihydro-1H-pyrazolo[3,4-b][1,4]thiazin-4-yl)acetamide], below 50 µM; for `COc1ccc(CNC(=O)CN2C(=O)CSc3c2c(C)nn3-c2ccccc2)cc1` [II-1007, N-(4-Methoxybenzyl)-2-(3-methyl-5-oxo-1-phenyl-5,6-dihydro-1H-pyrazolo[3,4-b][1,4]thiazin-4-yl)acetamide], below 50 µM. In the case of `Cc1nn(-c2ccccc2)c2c1N(CC(=O)NC(C)C)C(=O)CS2` [II-1008, N-Isopropyl-2-(3-methyl-5-oxo-1-phenyl-5,6-dihydro-1H-pyrazolo[3,4-b][1,4]thiazin-4-yl)acetamide], the IC50 is above 50 µM. For `Cc1nn(-c2ccccc2)c2c1N(CC(=O)NCCN1CCOCC1)C(=O)CS2` [II-1010, 2-(3-Methyl-5-oxo-1-phenyl-5,6-dihydro-1H-pyrazolo[3,4-b][1,4]thiazin-4-yl)-N-(2-morpholin-4-yl)ethylacetamide] the value was above 50 µM; for `CNC(=O)CN1C(=O)CSc2c1c(C)nn2-c1ccccc1` [II-1011, N-Methyl-2-(3-methyl-5-oxo-1-phenyl-5,6-dihydro-1H-pyrazolo[3,4-b][1,4]thiazin-4-yl)acetamide], above 50 µM. In the case of `Cc1nn(-c2ccccc2)c2c1N(CC(=O)N1CCN(c3ccc(Cl)cc3)CC1)C(=O)CS2` [II-1012, 4-{2-[4-(4-Chlorophenyl)piperazin-1-yl]-2-oxoethyl}-3-methyl-1-phenyl-1,4-dihydropyrazolo[3,4-b][1,4]thiazin-5-one] it was below 0.5 µM; in that of `Cc1nn(-c2ccccc2)c2c1N(CC(=O)N1CCCC1)C(=O)CS2` [II-1013, 3-Methyl-4-[2-oxo-2-(pyrrolidin-1-yl)ethyl]-1-phenyl-1,4-dihydropyrazolo[3,4-b][1,4]thiazin-5-one], above 50 µM.

Turning to `Cc1nn(-c2ccccc2)c2c1N(CCCC(=O)N1CCN(c3ccccc3)CC1)C(=O)CS2` [II-1023, 3-Methyl-4-[4-oxo-4-(4-phenylpiperazin-1-yl)butyl]-1-phenyl-1,4-dihydropyrazolo[3,4-b][1,4]thiazin-5-one], the IC50 was below 0.5 µM. In turn, `Cc1nn(-c2ccccc2)c2c1N(CCCC(=O)N1CCN(c3ccccn3)CC1)C(=O)CS2` [II-1025, 3-Methyl-4-[4-oxo-4-((4-pyridin-2-yl)piperazin-1-yl)butyl]-1-phenyl-1,4-dihydropyrazolo[3,4-b][1,4]thiazin-5-one] displayed an IC50 below 0.5 µM. For the compound `COc1ccc(NC(=O)CCCN2C(=O)CSc3c2c(C)nn3-c2ccccc2)cc1` [II-1026, N-(4-Methoxyphenyl)-4-(3-methyl-5-oxo-1-phenyl-5,6-dihydro-1H-pyrazolo[3,4-b][1,4]thiazin-4-yl)butyramide], the IC50 was below 50 µM. For `COc1cccc(C(=O)Nc2ccc(-c3cn4ccccc4n3)cc2)c1` [III-1001, N-(4-(Imidazo[1,2-a]pyridin-2-yl)phenyl)-3-methoxybenzamide] the value was below 0.5 µM. The compound `CCC(=O)Nc1ccc(-c2cn3ccccc3n2)cc1` [III-1002, N-(4-(Imidazo[1,2-a]pyridin-2-yl)phenyl)propionamide] yielded an IC50 below 50 µM.

Consider `O=C(Nc1ccc(-c2cn3ccccc3n2)cc1)c1ccncc1` [III-1003, N-(4-(Imidazo[1,2-a]pyridin-2-yl)phenyl)isonicotinamide], for which the IC50 was below 0.5 µM.
